This note sets out measurements from patent publication US8735387B2, “Oxazolopyrimidines as Edg-1 receptor agonists” (Sanofi, priority 2008, dated 2014).

The first assay deals with T1, human Edg-1 receptor (Homo sapiens, UniProt P21453).
T1 construct: expressed in transfected cells; membrane preparation
T1 sequence (P21453 whole entry): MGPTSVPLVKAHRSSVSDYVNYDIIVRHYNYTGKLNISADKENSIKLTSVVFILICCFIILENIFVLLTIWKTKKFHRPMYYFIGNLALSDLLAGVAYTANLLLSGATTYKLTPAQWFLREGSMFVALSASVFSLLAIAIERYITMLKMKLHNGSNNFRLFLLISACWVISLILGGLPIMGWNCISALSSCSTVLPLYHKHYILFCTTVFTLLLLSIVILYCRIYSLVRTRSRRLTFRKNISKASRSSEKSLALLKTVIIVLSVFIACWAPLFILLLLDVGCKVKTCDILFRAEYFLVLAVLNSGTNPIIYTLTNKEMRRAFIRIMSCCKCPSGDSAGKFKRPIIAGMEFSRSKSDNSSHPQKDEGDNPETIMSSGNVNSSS
In words: GTP-γ-S assay using human Edg-1 receptors (scintillation proximity assay, membrane preparation from CHO Flp-In cell line). Format: biochemical. The following applies: example compound at 10 μM; relative to 10 μM S1P; GTP-γ-S SPA, human Edg-1 membranes. In outline:
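Scintillation proximity GTP-γ-S binding assay measuring receptor activation. Membranes prepared from a CHO Flp-In line stably overexpressing N-terminally FLAG-tagged human Edg-1.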
(SPA uses beads or plates that emit light when radiolabelled molecules are held near them.)
Take `CCCOc1nc(Cc2ccc(Cl)cc2)nc2oc(-c3ccco3)nc12` [Example 102]: the “% Activation (Edg-1 receptor activation in percent of the activation by 10 μM S1P)” value is reported as 65%. The same measure, in the same setting: the figure for `C=CCOc1nc(Cc2ccc(Cl)c(Cl)c2)nc2oc(-c3cccc(F)c3)nc12` [Example 141] is 85%; for `CCCOc1nc(CN2CCOCC2)nc2oc(-c3c(F)ccc(F)c3F)nc12` [Example 82] it is 104%; for `Cc1ccc(-c2nc3c(OC4CCCC4)nc(Cc4ccc(Cl)cc4)nc3o2)cc1` [Example 113] it is 41%. Still for that read-out and setting: the figure for `CCCOc1nc(Cn2c(=O)n(C)c3ccccc32)nc2oc(-c3cccc(F)c3)nc12` [Example 133] is 127%; for `CCCOc1nc(CN2CCC(F)(F)CC2)nc2oc(-c3ccc(F)c(F)c3)nc12` [Example 68] it is 120%; for `CCCOc1nc(Cc2ccc(Cl)cc2)nc2oc(-c3cc(C)c(OCC(O)CNC(=O)c4ccco4)c(C)c3)nc12` (centres unmarked) [Example 305] it is 103%.

`CCCOc1nc(CN2C(=O)CC(C)(C)CC2=O)nc2oc(-c3cccc(F)c3)nc12` [Example 142]: the “% Activation (Edg-1 receptor activation in percent of the activation by 10 μM S1P)” value was found to be 75%. Regarding `CCCOc1nc(CN2CCCOCC2)nc2oc(-c3ccc(Br)o3)nc12` [Example 99], the “% Activation (Edg-1 receptor activation in percent of the activation by 10 μM S1P)” value came out at 117%.

Turning to `CCCOc1nc(CN2CCC(F)CC2)nc2oc(-c3cccc(F)c3)nc12` [Example 70], the “% Activation (Edg-1 receptor activation in percent of the activation by 10 μM S1P)” value turned out to be 113%.

In the case of `CCCOc1nc(CN2CCOCC2)nc2oc(-c3cc(F)c(F)cc3Cl)nc12` [Example 84], the “% Activation (Edg-1 receptor activation in percent of the activation by 10 μM S1P)” value is 108%. On to `CCCOc1nc(Cc2ccc(Cl)cc2)nc2oc(-c3cc(C)c(OCC(=O)OCC)c(C)c3)nc12` [Example 233], for which the “% Activation (Edg-1 receptor activation in percent of the activation by 10 μM S1P)” value was 79%.

Take `CCCOc1nc(CN2CCOCC2)nc2oc(-c3ccc(Cl)c(Cl)c3)nc12` [Example 77]: the “% Activation (Edg-1 receptor activation in percent of the activation by 10 μM S1P)” value stood at 112%. On the same count and under the same terms, under `CCCOc1nc(CN2CC(C(=O)O)C2)nc2oc(-c3cccc(F)c3)nc12` [Example 51] stands 24%; under `CCOc1nc(Cc2ccc(Cl)cc2)nc2oc(-c3cc(C)c(OCC(O)CNC(=O)CO)c(C)c3)nc12` (centres unmarked) [Example 258], 97%; under `C#CCOc1nc(Cc2ccc(Cl)cc2)nc2oc(-c3cccc(C)c3)nc12` [Example 109], 61%. Still for that read-out and setting: under `CCCOc1nc(CN2CCCCC2c2nccs2)nc2oc(-c3cccc(F)c3)nc12` (centres unmarked) [Example 147] stands 55%; under `CCCOc1nc(Cc2ccc(Cl)cc2)nc2oc(-c3cc(C)c(OCC(O)CNC4CCN(CC(C)C)CC4)c(C)c3)nc12` (centres unmarked) [Example 206], 67%; under `CCCOc1nc(CN2CCOC[C@@H]2CO)nc2oc(-c3cccc(F)c3)nc12` [Example 185], 97%. On the same count and under the same terms, under `CCCOc1nc(Cc2ccc(Cl)cc2)nc2oc(-c3ccc(C)cc3)nc12` [Example 100] stands 88%. On to `CCCOc1nc(CC2CCOCC2)nc2oc(-c3cccc(F)c3)nc12` [Example 160], for which the “% Activation (Edg-1 receptor activation in percent of the activation by 10 μM S1P)” value is on record as 69%. Same read-out and setting: under `CCOc1nc(Cc2ccc(Cl)cc2)nc2oc(-c3cc(C)c(OCC(=O)NCCN(C)C)c(C)c3)nc12` [Example 249] stands 104%. The same measure, in the same setting: under `CCOc1nc(Cc2ccc(Cl)cc2)nc2oc(-c3cc(C)c(OCC(O)CNC4CCC(C(F)(F)F)CC4)c(C)c3)nc12` (centres unmarked) [Example 261] stands 86%; under `CCCOc1nc(CN2CCC(F)(F)CC2)nc2oc(-c3ccco3)nc12` [Example 96], 121%; under `CCCOc1nc(Cc2ccc(Cl)cc2)nc2oc(-c3cc(C)cc(C)c3)nc12` [Example 149], 102%. Same read-out and setting: under `CCCOc1nc(CN2CCCOCC2)nc2oc(-c3cc(OC)ccc3OC)nc12` [Example 80] stands 65%; under `CCOc1nc(Cc2ccc(Cl)cc2)nc2oc(-c3cc(C)c(OCC(O)CNC(C)=O)c(C)c3)nc12` (centres unmarked) [Example 208], 111%. Regarding `CCCOc1nc(CN2C(=O)CCCC2=O)nc2oc(-c3cccc(F)c3)nc12` [Example 63], the “% Activation (Edg-1 receptor activation in percent of the activation by 10 μM S1P)” value is 102%. On the same count and under the same terms, the figure for `CCCOc1nc(CN2CCCOCC2)nc2oc(-c3ccc(Cl)c(Cl)c3)nc12` [Example 78] is 103%.

The assay is the same for the next values; noted with them: example compound at 10 μM; relative to 10 μM S1P; GTP-γ-S SPA, human Edg-1 membranes; read-out: % Activation (Edg-1 receptor activation in percent of the activation by 10 μM S1P).
With `CCCOc1nc(Cc2ccc(Cl)cc2)nc2oc(-c3cc(C)c(OCC(=O)NCC(=O)O)c(C)c3)nc12` [Example 199, (2-{4-[5-(4-Chloro-benzyl)-7-propoxy-oxazolo[5,4-d]pyrimidin-2-yl]-2,6-dimethyl-phenoxy}-acetylamino)-acetic acid], the activation at 10 µM was found to be 112%. In the case of `CCCOc1nc(CN2CCOCC2)nc2oc(-c3cccc(O)c3)nc12` [Example 4, 3-(5-Morpholin-4-ylmethyl-7-propoxy-oxazolo[5,4-d]pyrimidin-2-yl)-phenol], the activation at 10 µM was 105%. As for `Cc1cccc(-c2nc3c(OCC4CC4)nc(CC(C)(C)c4ccccc4)nc3o2)c1` [Example 9, 7-Cyclopropylmethoxy-5-(2-methyl-2-phenyl-propyl)-2-(3-methyl-phenyl)-oxazolo[5,4-d]pyrimidine], the activation at 10 µM is 37%.
